{"source": "patent US20260007601A1", "about": "“IONIZABLE CATIONIC LIPID COMPOUND AND COMPOSITION FOR DELIVERING NUCLEIC ACID AND USE THEREOF” (BEIJING YOUCAREKECHUANG PHARMACEUTICAL TECHNOLOGY CO., LTD., priority 2023, published 2026)", "key": {"[1]": {"system": "293T cells", "test": "Cell survival rate assay (CCK-8)", "type": "cell-based", "summary_of_the_method": "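293T cells seeded at 10,000 per well and grown overnight, then exposed for 24 h to LNPs (cationic/neutral/structured/PEG lipids 49:10:39.5:1.5) carrying 1.5 μg Fluc-mRNA, or Lipofectamine 3000. Viability read by CCK-8, 1 h incubation, absorbance at 450 nm.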"}, "[2]": {"test": "Encapsulation rate, drug loading concentration and total RNA concentration detection (RiboGreen)", "type": "physicochemical"}, "[3]": {"test": "Particle size and polydispersity index (PDI) of nanolipid particles, dynamic light scattering", "type": "physicochemical", "conditions": "LNP formulation prepared from the named cationic lipid, 25° C", "procedure": "The particle size and polydispersity index (PDI) were determined by dynamic light scattering method using a Malvern laser particle size analyzer. 10 μL of liposome solution was diluted to 1 mL with RNase-free deionized water and added to a sample pool. Each sample was measured three times. The measurement conditions were: 90° scattering angle, 25° C."}, "[4]": {"system": "293T cells", "test": "Fluorescence detection of Fluc-mRNA (cell transfection efficiency of LNP formulations)", "type": "cell-based", "summary_of_the_method": "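293T cells at 10,000 per well, adhered overnight, then given LNPs carrying 0.3 μg Fluc-mRNA (cationic:neutral:structured:polymer-conjugated lipid 49:10:39.5:1.5 molar). After 24 h, luciferase signal read with luciferase kit reagents on an IVIS imaging system as transfection efficiency.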"}, "[5]": {"conditions": "LNP formulation of the named lipid"}}, "note": "“And” between values parts separate entries of the source, which are not always exact repeats. Identical values can stand only once.", "data": [{"compound": "CCCCCCCCCCCOC(=O)CCCCCN(CCCCCCCC(=O)OCC(CCCCCCCC)CCCCCCCC)CCN(C)CCO", "note": "[YK-202]", "values": [{"measurement": "Cell survival rate", "setting": "[1]; LNP containing 1.5 μg Fluc-mRNA, 24 hours, CCK-8", "result": 76.81, "unit": "%"}, {"measurement": "cell survival rate higher (cytotoxicity reduced) compared with YK-221", "setting": "[1]; difference of rates", "result": "55% and 55.86%"}, {"measurement": "cell survival rate higher (toxicity lower) than that of YK-204", "setting": "[1]; difference of rates", "result": 34.24, "unit": "%"}, {"measurement": "cell survival rate higher (toxicity lower) than that of YK-225", "setting": "[1]; difference of rates", "result": 33.40, "unit": "%"}, {"measurement": "cell survival rate higher than that of ALC-0315", "setting": "[1]; difference of rates", "result": 26.85, "unit": "%"}, {"measurement": "cell survival rate higher than that of HHMA", "setting": "[1]; difference of rates", "result": 11.25, "unit": "%"}, {"measurement": "cell survival rate higher than that of Lipofectamine 3000", "setting": "[1]; difference of rates", "result": 53.76, "unit": "%"}, {"measurement": "cell survival rate higher than that of SM-102", "setting": "[1]; difference of rates", "result": 8.26, "unit": "%"}, {"measurement": "cell survival rate higher than that of YK-203", "setting": "[1]; difference of rates", "result": 41.25, "unit": "%"}, {"measurement": "cell survival rate higher than that of YK-205", "setting": "[1]; difference of rates", "result": 17.89, "unit": "%"}, {"measurement": "cell survival rate higher than that of YK-208", "setting": "[1]; difference of rates", "result": 30.13, "unit": "%"}, {"measurement": "cell survival rate higher than that of YK-210", "setting": "[1]; difference of rates", "result": 38.43, "unit": "%"}, {"measurement": "cell survival rate higher than that of YK-211", "setting": "[1]; difference of rates", "result": 24.51, "unit": "%"}, {"measurement": "cell survival rate higher than that of YK-212", "setting": "[1]; difference of rates", "result": 41.55, "unit": "%"}, {"measurement": "cell survival rate higher than that of YK-213", "setting": "[1]; difference of rates", "result": 35.37, "unit": "%"}, {"measurement": "cell survival rate higher than that of YK-214", "setting": "[1]; difference of rates", "result": "51.23% and 50%"}, {"measurement": "cell survival rate higher than that of YK-215", "setting": "[1]; difference of rates", "result": 32.22, "unit": "%"}, {"measurement": "cell survival rate higher than that of YK-216", "setting": "[1]; difference of rates", "result": 31.01, "unit": "%"}, {"measurement": "cell survival rate higher than that of YK-217", "setting": "[1]; difference of rates", "result": 34.54, "unit": "%"}, {"measurement": "cell survival rate higher than that of YK-219", "setting": "[1]; difference of rates", "result": 18.20, "unit": "%"}, {"measurement": "cell survival rate higher than that of YK-220", "setting": "[1]; difference of rates", "result": 17.82, "unit": "%"}, {"measurement": "cell survival rate higher than that of YK-222", "setting": "[1]; difference of rates", "result": 43.06, "unit": "%"}, {"measurement": "cell survival rate higher than that of YK-223", "setting": "[1]; difference of rates", "result": 40.17, "unit": "%"}, {"measurement": "cell survival rate higher than that of YK-224", "setting": "[1]; difference of rates", "result": 53.34, "unit": "%"}, {"measurement": "cell survival rate higher than that of YK-226", "setting": "[1]; difference of rates", "result": 48.91, "unit": "%"}, {"measurement": "cell survival rate higher than that of compound 21", "setting": "[1]; difference of rates", "result": 7.79, "unit": "%"}, {"measurement": "cell survival rate higher than that of compound 23", "setting": "[1]; difference of rates", "result": 6.71, "unit": "%"}, {"measurement": "drug loading concentration, times that of ALC-0315", "setting": "[2]", "result": 1.42, "unit": "times"}, {"measurement": "drug loading concentration, times that of HHMA", "setting": "[2]", "result": 1.21, "unit": "times"}, {"measurement": "drug loading concentration, times that of SM-102", "setting": "[2]", "result": 1.46, "unit": "times"}, {"measurement": "drug loading concentration, times that of YK-009", "setting": "[2]", "result": 1.38, "unit": "times"}, {"measurement": "drug loading concentration, times that of compound 21", "setting": "[2]", "result": 1.64, "unit": "times"}, {"measurement": "drug loading concentration, times that of compound 23", "setting": "[2]", "result": 1.79, "unit": "times"}, {"measurement": "total RNA concentration, times that of ALC-0315", "setting": "[2]", "result": 1.16, "unit": "times"}, {"measurement": "total RNA concentration, times that of HHMA", "setting": "[2]", "result": 1.14, "unit": "times"}, {"measurement": "total RNA concentration, times that of SM-102", "setting": "[2]", "result": 1.22, "unit": "times"}, {"measurement": "total RNA concentration, times that of YK-009", "setting": "[2]", "result": 1.11, "unit": "times"}, {"measurement": "total RNA concentration, times that of compound 21", "setting": "[2]", "result": 1.40, "unit": "times"}, {"measurement": "total RNA concentration, times that of compound 23", "setting": "[2]", "result": 1.32, "unit": "times"}, {"measurement": "Drug loading concentration", "setting": "[2]; [5]", "result": 37.08, "unit": "µg/mL"}, {"measurement": "Encapsulation rate", "setting": "[2]; [5]", "result": 86.3, "unit": "%"}, {"measurement": "Total RNA concentration", "setting": "[2]; [5]", "result": 42.98, "unit": "µg/mL"}, {"measurement": "encapsulation rate higher than that of ALC-0315", "setting": "[2]; difference of rates", "result": 23.50, "unit": "%"}, {"measurement": "encapsulation rate higher than that of HHMA", "setting": "[2]; difference of rates", "result": 25.80, "unit": "%"}, {"measurement": "encapsulation rate higher than that of SM-102", "setting": "[2]; difference of rates", "result": 24.00, "unit": "%"}, {"measurement": "encapsulation rate higher than that of YK-009", "setting": "[2]; difference of rates", "result": 23.30, "unit": "%"}, {"measurement": "encapsulation rate higher than that of compound 21", "setting": "[2]; difference of rates", "result": 28.50, "unit": "%"}, {"measurement": "encapsulation rate higher than that of compound 23", "setting": "[2]; difference of rates", "result": 31.10, "unit": "%"}, {"measurement": "PDI", "setting": "[3]", "result": 23.4, "unit": "%"}, {"measurement": "Particle size", "setting": "[3]", "result": 173, "unit": "nm"}, {"measurement": "RLU / cell transfection efficiency, times that of ALC-0315", "setting": "[4]; Fluc-mRNA LNP", "result": 13.95, "unit": "times"}, {"measurement": "RLU / cell transfection efficiency, times that of HHMA", "setting": "[4]; Fluc-mRNA LNP", "result": 14.27, "unit": "times"}, {"measurement": "RLU / cell transfection efficiency, times that of Lipofectamine 3000", "setting": "[4]; Fluc-mRNA LNP", "result": 24.94, "unit": "times"}, {"measurement": "RLU / cell transfection efficiency, times that of YK-009", "setting": "[4]; Fluc-mRNA LNP", "result": 5.84, "unit": "times"}, {"measurement": "RLU / cell transfection efficiency, times that of compound 21", "setting": "[4]; Fluc-mRNA LNP", "result": "21.08 times and 21 times"}, {"measurement": "RLU / cell transfection efficiency, times that of compound 23", "setting": "[4]; Fluc-mRNA LNP", "result": "22.49 times and 22 times"}, {"measurement": "cell transfection efficiency, times that of YK-223", "setting": "[4]; Fluc-mRNA LNP", "result": 399.37, "unit": "times"}, {"measurement": "cell transfection efficiency, times that of YK-224", "setting": "[4]; Fluc-mRNA LNP", "result": 340.35, "unit": "times"}, {"measurement": "cell transfection efficiency, times that of YK-226", "setting": "[4]; Fluc-mRNA LNP", "result": 519.55, "unit": "times"}, {"measurement": "fluorescence absorption value / cell transfection efficiency, times that of YK-203", "setting": "[4]; Fluc-mRNA LNP", "result": 7.74, "unit": "times"}, {"measurement": "fluorescence absorption value / cell transfection efficiency, times that of YK-204", "setting": "[4]; Fluc-mRNA LNP", "result": "82 times and 82.30 times"}, {"measurement": "fluorescence absorption value / cell transfection efficiency, times that of YK-205", "setting": "[4]; Fluc-mRNA LNP", "result": 29.11, "unit": "times"}, {"measurement": "fluorescence absorption value / cell transfection efficiency, times that of YK-208", "setting": "[4]; Fluc-mRNA LNP", "result": 7.76, "unit": "times"}, {"measurement": "fluorescence absorption value / cell transfection efficiency, times that of YK-210", "setting": "[4]; Fluc-mRNA LNP", "result": 6.47, "unit": "times"}, {"measurement": "fluorescence absorption value / cell transfection efficiency, times that of YK-211", "setting": "[4]; Fluc-mRNA LNP", "result": 21.87, "unit": "times"}, {"measurement": "fluorescence absorption value / cell transfection efficiency, times that of YK-212", "setting": "[4]; Fluc-mRNA LNP", "result": 7.66, "unit": "times"}, {"measurement": "fluorescence absorption value / cell transfection efficiency, times that of YK-213", "setting": "[4]; Fluc-mRNA LNP", "result": 21.95, "unit": "times"}, {"measurement": "fluorescence absorption value / cell transfection efficiency, times that of YK-214", "setting": "[4]; Fluc-mRNA LNP", "result": 6.54, "unit": "times"}, {"measurement": "fluorescence absorption value / cell transfection efficiency, times that of YK-215", "setting": "[4]; Fluc-mRNA LNP", "result": 30.53, "unit": "times"}, {"measurement": "fluorescence absorption value / cell transfection efficiency, times that of YK-216", "setting": "[4]; Fluc-mRNA LNP", "result": 13.14, "unit": "times"}, {"measurement": "fluorescence absorption value / cell transfection efficiency, times that of YK-217", "setting": "[4]; Fluc-mRNA LNP", "result": 416.94, "unit": "times"}, {"measurement": "fluorescence absorption value / cell transfection efficiency, times that of YK-218", "setting": "[4]; Fluc-mRNA LNP", "result": 49.35, "unit": "times"}, {"measurement": "fluorescence absorption value / cell transfection efficiency, times that of YK-219", "setting": "[4]; Fluc-mRNA LNP", "result": 19.89, "unit": "times"}, {"measurement": "fluorescence absorption value / cell transfection efficiency, times that of YK-220", "setting": "[4]; Fluc-mRNA LNP", "result": 138.44, "unit": "times"}, {"measurement": "fluorescence absorption value, times that of YK-222", "setting": "[4]; Fluc-mRNA LNP", "result": 49.41, "unit": "times"}, {"measurement": "Relative light unit (RLU)", "setting": "[4]; LNP containing 0.3 μg Fluc-mRNA, 24 hours", "result": 29957419, "unit": "RLU"}, {"measurement": "Multiples of values that equivalent to YK-201", "setting": "[4]; RLU of YK-201 / RLU of the named lipid", "result": 0.95}, {"measurement": "Multiples of values that equivalent to YK-202", "setting": "[4]; RLU of YK-202 / RLU of the named lipid", "result": 1.00}]}]}
